The source of these data is patent publication US20240083892A1 (BISICHEM CO., LTD., priority 2021, published 2024).

Molecules are shown by their SMILES.

Assay [1] deals with T1, RIPK1 (Homo sapiens, UniProt Q13546).
T1 construct: endogenous in cells; host or cells: HT-29 (KCLB 30038)
T1 sequence (Q13546 1-671): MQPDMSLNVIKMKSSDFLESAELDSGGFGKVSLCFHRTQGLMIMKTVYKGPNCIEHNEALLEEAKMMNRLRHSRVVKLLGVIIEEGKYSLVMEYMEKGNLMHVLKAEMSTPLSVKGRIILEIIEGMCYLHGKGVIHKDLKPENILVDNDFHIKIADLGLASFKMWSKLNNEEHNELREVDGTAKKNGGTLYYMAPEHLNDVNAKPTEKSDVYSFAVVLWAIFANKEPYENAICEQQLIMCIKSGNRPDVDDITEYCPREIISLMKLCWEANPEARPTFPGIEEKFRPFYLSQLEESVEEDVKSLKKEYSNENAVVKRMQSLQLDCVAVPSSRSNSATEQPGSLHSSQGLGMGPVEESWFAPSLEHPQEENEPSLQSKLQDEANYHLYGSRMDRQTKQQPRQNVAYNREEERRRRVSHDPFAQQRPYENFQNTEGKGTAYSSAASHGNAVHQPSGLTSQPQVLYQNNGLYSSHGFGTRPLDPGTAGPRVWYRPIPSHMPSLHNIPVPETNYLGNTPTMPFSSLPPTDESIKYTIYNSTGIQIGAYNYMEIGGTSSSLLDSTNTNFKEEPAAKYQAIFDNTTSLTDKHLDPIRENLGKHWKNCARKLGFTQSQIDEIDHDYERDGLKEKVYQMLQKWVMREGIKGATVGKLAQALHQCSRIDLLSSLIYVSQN
Description: Cell-based necroptosis assay for RIPK1 activity (cell viability by CCK-8). To be noted: HT-29 cells; Z-VAD-FMK 20 μM, human TNFα 10 ng/ml, SM-164 100 nM; 24 h; read-out: Cell-base RIPK1 activity: Necroptosis. The essentials: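 HT-29 cells pretreated 30 min with 20 μM Z-VAD-FMK, then necroptosis induced with human TNFα 10 ng/ml plus SM-164 100 nM alongside RIPK1 inhibitor (0.0001–10 uM) for 24 h. Viability read by CCK-8.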

The target in assay [2] is T1, RIPK1. Briefly: Immunoblotting of TNFα induced phospho-RIPK1 (ser 166) levels. The class given is cell-based. To be noted: HMC3 cells; Z-VAD-FMK, human TNFα 20 ng/ml, SM-164 100 nM; 7 h, serum free media; read-out: Cell-base RIPK1 activity: phspho-RIPK1 (Ser166). The essentials: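 HMC3 human microglial cells were pretreated 30 min with Z-VAD-FMK […]. They were then given TNFα 20 ng/ml, SM-164 100 nM and inhibitor (0.1, 1, 10 nM) for 7 h in serum-free medium. BCA-normalised lysates were immunoblotted for phospho-RIPK1 Ser166.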
(In general: Immunoblotting shows a protein as a band on a membrane.)

On to `CN1C(=O)[C@@H](NC(=O)n2cc(Cc3cccc(F)c3)cn2)COc2ccc(OCC(O)c3cccnc3)cc21` (stereo partly drawn) [Example 70, 4-(3-fluorobenzyl)-N-((3S)-7-(2-hydroxy-2-(pyridin-3-yl)ethoxy)-5-methyl-4-oxo-2,3,4,5-tetrahydrobenzo[b][1,4]oxazepin-3-yl)-1H-pyrazole-1-carboxamide], for which the IC50 on RIPK1 [1] and on RIPK1 [2] was under 10 nM in each case.
Take `CN1C(=O)[C@@H](NC(=O)n2cc(Cc3cccc(F)c3)cn2)COc2ccc(OCC(O)c3ccncc3)cc21` (stereo partly drawn) [Example 71, 4-(3-fluorobenzyl)-N-((3S)-7-(2-hydroxy-2-(pyridin-4-yl)ethoxy)-5-methyl-4-oxo-2,3,4,5-tetrahydrobenzo[b][1,4]oxazepin-3-yl)-1H-pyrazole-1-carboxamide]: the IC50 on RIPK1 [1] and on RIPK1 [2] was under 10 nM each time.
